Assay results taken from patent US20080194922A1, “POTENTIATION FOR MEDICAL THERAPIES” (priority 2005, published 2008).

Legend:
[1] = tested on: cat with multiple myeloma; test: System Functions (linear regression of dexamethasone dose versus food intake) and test of dexamethasone regimens, cat myeloma model; format: in vivo
Excerpt: Based on the foregoing analysis, 3 different dexamethasone regimens where designed and hypothesized systems functions were formulated for predicting the impact of a regimen on food intake. […] In general, the system functions are in the form of:
Predicted Food Intake Dayn (tsp)=(dexamethasone dose Dayn) (mg)×Factor Dayn (tsp/mg);
Predicted Food Intake Dayn+1 (tsp)=[(dexamethasone dose Dayn+1) (mg)×Factor Dayn+1 (tsp/mg)]+Predicted Food Intake Dayn;
Predicted Food Intake Dayn+2 (tsp)=[(dexamethasone dose Dayn+2) (mg)×Factor Dayn+2 (tsp/mg)]+Predicted Food Intake Dayn+1;
wherein “Dayn” is the first day of a three to six day dosing cycle and, if the dexamethasone dose is 0.00, this value is converted to 1.00. “Factor Dayn” is regimen specific and was determined by linear regression analysis of the correlation between dexamethasone dose and food intake performed separately for days 1, 2, and 3 of the cycle a given regimen. For example, all first day dexamethasone administrations were identified in the past data. Food intake for those days were compared to the food intake the day before and averaged, then divided by the dose of dexamethasone for each first day (((Food Intake Dayn (tsp)−Dayn−1 (tsp))/number of first days)/dexamethasone Dayn).
The system functions were used to predict the results with three dexarnethasone regimens. Regimen 1 employs a dosing schedule of 0.250 mg dexamethasone 2 days on and then 1 day off.

[2] = tested on: multiple myeloma in a cat; test: Narrow therapeutic band established by potentiating the therapy of multiple myeloma in a cat
[3] = tested on: cat with multiple myeloma; test: Delta Correlation Function analysis of dexamethasone dose versus food intake, cat myeloma model; format: in vivo; settings: for normalized DCF, food intake versus dexamethasone dose: 1 day off
Excerpt: The inventive method was used to analyze changes from day to day. The data was digitized by substituting either +1 for positive change (dayn+i greater than dayn), 0 (zero) for no change, and −1 for negative change (dayn+i less than dayn). Digitizing the change magnifies small changes by giving small differences the same value as large differences. For example, a positive change is noted as +1 whether the change is 1 milligram or 10 grams.
The inventive method multiplied a digitized change in therapy element by the corresponding digitized change in correlation factor to produce a correlation product. Because the digitized changes are signed (+ or −), changes in the same direction (both positive or both negative) produce a positive product. Changes in opposite directions (one negative and one positive) produce a negative product. The inventive method then provided a rolling average of correlation products over fixed period of time. (A positive average indicates a positive correlation between dose and result.)
There is a phase or timing relationship that should be considered. FIG. 15, drawn to the same scale as FIG. 14, illustrates an eighteen day rolling average of correlation product with a one day offset for the change in food intake. That is, the food intake on dayn+i minus the food intake on dayn is multiplied by the dose on dayn minus the dose on dayn—i. In FIGS. 12-14, the product is the food intake on dayn minus the food intake on dayn—i multiplied by the dose on dayn minus the dose on dayn—i.
Because of the delayed effect of some therapies, the invention provides for an “offset,” or staggering, of the corresponding therapy elements and correlation factors that are multiplied to obtain the normalized Delta Correlation Function (DCF).
A method provided by the invention was used to optimize the dexamethasone regimen based on the correlation factor food intake (i.e., determined the dexamethasome regimen that produces an increase in food intake.) Again, the cat myeloma model was used. […] The normalized DCF was calculated based upon a 24 time point sample (Days 445 to 469) with various offsets.

[4] = thalidomide 1.6 mg, in combination with the other elements of the potentiating protocol

Compound: C[C@@H]1C[C@H]2[C@@H]3CCC4=CC(=O)C=C[C@]4(C)[C@@]3(F)[C@@H](O)C[C@]2(C)[C@@]1(O)C(=O)CO [dexamethasone]
- Factor Dayn of System Function (food intake per dexamethasone dose) ([1]; Regimen 1 (0.250 mg 2 days on, 1 day off), Dayn): −5.11 tsp/mg
- Factor Dayn+1 of System Function ([1]; Regimen 1, Dayn+1): 8.57 tsp/mg
- Factor Dayn+2 of System Function ([1]; Regimen 1, Dayn+2 (day off, dose 0.00 converted to 1.00)): 2.23 tsp/mg
- food intake reached ([1]; Regimen 1: 0.250 mg dexamethasone 2 days on, 1 day off, physiologic limit): 15.5 tsp per day
- Factor Dayn of System Function ([1]; Regimen 2 (0.250 mg 2 days on, then 1 day at 0.125 mg), Dayn): −5.11 tsp/mg
- Factor Dayn+1 of System Function ([1]; Regimen 2, Dayn+1): 8.57 tsp/mg
- Factor Dayn+2 of System Function ([1]; Regimen 2, Dayn+2 (0.125 mg)): −0.53 tsp/mg
- Factor Dayn of System Function ([1]; Regimen 3 (0.125 mg every day, six day cycle), Dayn): −5.11 tsp/mg
- Factor Dayn+1 of System Function ([1]; Regimen 3, Dayn+1): 8.57 tsp/mg
- Factor Dayn+2 of System Function ([1]; Regimen 3, Dayn+2): −0.53 tsp/mg
- Factor Dayn+3 of System Function ([1]; Regimen 3, Dayn+3): −0.10 tsp/mg
- Factor Dayn+4 of System Function ([1]; Regimen 3, Dayn+4): 3.89 tsp/mg
- Factor Dayn+5 of System Function ([1]; Regimen 3, Dayn+5): −1.72 tsp/mg
- side effects at minimum dose ([2]; dexamethasone 0.125 mg (modulated 2 days on, 1 day off), in combination with the other elements of the protocol): without significant side effects
- adverse side effects above end point of narrow band ([2]; dexamethasone doses above 0.162 mg, such as thromboses and peripheral neuropathy): increased
- normalized DCF, food intake versus dexamethasone dose ([3]; 0.175 mg/day, 2 days on, Days 445 to 469 (24 time points), same day basis (no offset)): −0.16
- normalized DCF, food intake versus dexamethasone dose ([3]; 0.175 mg/day, 2 days on, Days 445 to 469, 2 day offset): +0.37
- normalized DCF, food intake versus dexamethasone dose ([3]; 0.175 mg/day, 2 days on, Days 445 to 469, 3 day offset): −0.09
- normalized DCF, food intake versus dexamethasone dose ([3]; 0.175 mg/day, 2 days on, Days 445 to 469, food intake offset by 1 day): −0.21
- time required for the dexamethasone therapeutic effect to develop ([3]; 0.375 mg, 1 day on, 1 day off regimen): approximately 1 day
- normalized DCF, food intake versus dexamethasone dose ([3]; 0.375 mg, 1 day on, Days 37 to 61, 1 day offset): +0.5
- normalized DCF, food intake versus dexamethasone dose ([3]; 0.375 mg, 1 day on, Days 37 to 61, same day): −0.52

Compound: O=C1CCC(N2C(=O)c3ccccc3C2=O)C(=O)N1 (centres unmarked) [thalidomide]
- side effects at minimum dose [2, 4]: without significant thalidomide side effects or resistance
- therapeutic effect at minimum dose [2, 4]: controlled the disease
- therapeutic effect above end point of narrow band ([2]; thalidomide doses above 1.8 mg): not increased
- adverse side effects above end point of narrow band ([2]; thalidomide doses above 1.8 mg, such as peripheral neuropathy): increased
